Data: patent publication US20230270653A1, “USE OF TREHALOSE FOR INHIBITING AILMENT INDUCING MICROORGANISMS” (Conopco, Inc., d/b/a UNILEVER, priority 2020, published 2023)

Assays:
S. aureus = experiment: Overlay assay, Log10 reduction (Kill) of S. aureus; type: cell-based, Staphylococcus aureus
From the text: (§1) Staphylococcus hominis (S. hominis, ATCC 27844), Cutibacterium acnes (C. acnes, ATCC6919), Staphylococcus aureus (S. aureus, ATCC 6538), and Malassezia restricta (M. restricta, ATCC 7877) were inoculated from freezer stock onto agar plates according to culture conditions as shown in table 1. Then, one loop of microbes from agar plate was inoculated into a liquid culture system according to the culture condition as shown in table 1. M. restricta were reinoculated on MLNA plate twice before use. Cell density of bacteria (S. hominis, C. acnes and S. aureus) was adjusted to concentration at 10^8 cfu/mL for further use based on absorption at 600 nm. Cell density of M. restricta was adjusted to concentration at 10^8 cfu/mL for further use based on absorption at 610 nm.
(§2) On Day 0, 15 mL of TSA containing (1) 2% Trehalose and 10^6 cfu/ml S. hominis, (2) 10^6 cfu/ml S. hominis alone (without trehalose), and (3) 2% trehalose alone (without S. hominis) was solidified in a […] petri dish and cultured at 37° C. for four days. TSA agar without S. hominis nor trehalose was prepared in parallel as control. […]
(§3) At the end, Log10 reduction (Kill) were determined for the targeted microorganisms, M. restricta and S. aureus on plate (1), (2), and (3) as compared to the respective M. restricta or S. aureus growth on control plate

M. restricta = experiment: Overlay assay, Log10 reduction (Kill) of M. restricta; type: cell-based, Malassezia restricta
From the text: as §1, §2, §3

OC[C@H]1O[C@H](O[C@H]2O[C@H](CO)[C@@H](O)[C@H](O)[C@H]2O)[C@H](O)[C@@H](O)[C@@H]1O [C, trehalose]
Log10 reduction (Kill) of S. aureus (S. aureus; TSA plate cultured at 37° C. for four days, TSA overlay, serially diluted S. aureus (ATCC 6538) dotted on, compared to growth on control plate): 1

OC[C@H]1O[C@H](O[C@H]2O[C@H](CO)[C@@H](O)[C@H](O)[C@H]2O)[C@H](O)[C@@H](O)[C@@H]1O [A, trehalose]
Log10 reduction (Kill) of M. restricta (M. restricta; TSA plate cultured at 37° C. for four days, MLNA overlay, serially diluted M. restricta (ATCC 7877) dotted on, compared to growth on control plate): 0

OC[C@H]1O[C@H](O[C@H]2O[C@H](CO)[C@@H](O)[C@H](O)[C@H]2O)[C@H](O)[C@@H](O)[C@@H]1O [Trehalose]
effectiveness against Malassezia restricta (M. restricta; in the presence of S. hominis, conclusion from Table 3): effective | effectiveness against Staphylococcus aureus (S. aureus; in the presence of S. hominis, conclusion from Table 4): effective
